Laboratory results as given in ChEMBL document CHEMBL5113492, “Design, synthesis, and biological evalution of bifunctional inhibitors against Hsp90-HDAC6 interplay” (Eur J Med Chem, 2022).
Activity calls are given as the source filed them. The rule behind the calls is not given here.

How the values were obtained:
[1] = target: T1, Protein deacetylase HDAC6 (Homo sapiens) (UniProt Q9UBN7); assay: Inhibition of HDAC6 in human NCI-H1975 cells assessed as microtubule polymerization at 1 uM incubated for 24 hrs by DAPI staining based immunofluorescence microscopy; format: cell-based
T1 sequence (whole entry): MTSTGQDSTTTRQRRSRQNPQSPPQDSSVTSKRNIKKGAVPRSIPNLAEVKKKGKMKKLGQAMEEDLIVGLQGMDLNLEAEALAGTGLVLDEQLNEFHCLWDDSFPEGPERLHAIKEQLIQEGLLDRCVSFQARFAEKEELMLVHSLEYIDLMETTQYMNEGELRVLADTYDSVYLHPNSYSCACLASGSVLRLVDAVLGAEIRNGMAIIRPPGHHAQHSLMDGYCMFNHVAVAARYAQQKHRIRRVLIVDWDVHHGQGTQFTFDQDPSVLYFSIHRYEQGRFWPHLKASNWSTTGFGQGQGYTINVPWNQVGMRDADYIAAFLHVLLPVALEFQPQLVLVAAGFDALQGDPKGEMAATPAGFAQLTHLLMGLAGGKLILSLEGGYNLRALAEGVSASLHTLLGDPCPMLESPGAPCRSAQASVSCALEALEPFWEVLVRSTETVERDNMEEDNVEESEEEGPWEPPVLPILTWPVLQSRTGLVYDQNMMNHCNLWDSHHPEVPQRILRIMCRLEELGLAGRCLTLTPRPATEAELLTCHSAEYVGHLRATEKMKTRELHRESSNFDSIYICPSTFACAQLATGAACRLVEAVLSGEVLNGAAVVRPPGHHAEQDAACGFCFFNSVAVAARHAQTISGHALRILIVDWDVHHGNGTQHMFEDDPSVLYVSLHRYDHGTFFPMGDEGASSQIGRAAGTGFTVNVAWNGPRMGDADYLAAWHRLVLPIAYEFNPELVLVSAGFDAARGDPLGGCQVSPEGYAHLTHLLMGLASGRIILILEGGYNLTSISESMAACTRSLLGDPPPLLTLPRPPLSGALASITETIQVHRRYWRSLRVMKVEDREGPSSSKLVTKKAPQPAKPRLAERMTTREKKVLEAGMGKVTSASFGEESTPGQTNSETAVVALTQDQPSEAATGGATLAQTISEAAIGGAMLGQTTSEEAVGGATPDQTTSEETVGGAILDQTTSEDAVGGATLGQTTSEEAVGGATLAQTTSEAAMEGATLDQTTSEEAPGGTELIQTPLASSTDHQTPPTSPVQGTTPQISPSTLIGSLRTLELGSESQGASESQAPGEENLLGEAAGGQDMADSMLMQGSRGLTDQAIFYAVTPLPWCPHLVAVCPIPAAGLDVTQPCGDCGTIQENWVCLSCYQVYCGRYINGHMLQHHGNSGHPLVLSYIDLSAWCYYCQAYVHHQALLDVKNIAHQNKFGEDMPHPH

[2] = Toxicity in NSG mouse xenografted with human NCI-H1975 cells assessed as change in body weight at 50 mg/kg,ip measured after 6 weeks; format: organism-based; conditions: in vivo, 1008 h
NCI-H1975 [3] = assay: Antitumor activity against NSG mouse xenografted with human NCI-H1975 cells assessed as reduction on tumor growth at 50 mg/kg,ip measured after 2 weeks; format: functional, organism-based
NCI-H1975 [4] = assay: Antitumor activity against NSG mouse xenografted with human NCI-H1975 cells assessed as reduction on tumor growth at 25 mg/kg,ip measured after 6 weeks; format: functional, organism-based
[5] = target: T2, Heat shock protein HSP90 (Homo sapiens) (UniProt P07900+P08238); assay: Inhibition of HSP90 in human NCI-H1975 cells assessed as upregulation of HSP70 expression at 0.05 to 2 uM incubated for 24 hrs by western blot analysis; format: cell-based; conditions: dose 0.05-2 µM, DDE = dose-dependent effect
NCI-H1975 [6] = assay: Antiproliferative activity against human NCI-H1975 cells assessed as growth inhibition incubated upto 72 hrs by CellTiter96 Aqueous One Solution Cell Proliferation assay; format: functional
[7] = target: T1, Protein deacetylase HDAC6 (Homo sapiens); assay: Inhibition of HDAC6 in human NCI-H1975 cells assessed as increase in acetylation of HSP90-Lys 294 residue at 2 uM incubated for 24 hrs by western blot analysis; format: cell-based
[8] = Toxicity in NSG mouse xenografted with human NCI-H1975 cells assessed as histological abnormalities in ocular region at 50 mg/kg,ip measured after 6 weeks by H and E staining based assay; format: organism-based; conditions: in vivo, 1008 h
[9] = Toxicity in NSG mouse xenografted with human NCI-H1975 cells assessed as abnormal behavior at 50 mg/kg,ip measured after 6 weeks; format: organism-based; conditions: in vivo, 1008 h
[10] = target: T2, Heat shock protein HSP90 (Homo sapiens); assay: Inhibition of HSP90 in human NCI-H1975 cells assessed as upregulation of HSP70 expression at 2 uM incubated for 24 hrs by western blot analysis; format: cell-based
Mus musculus = assay: In vivo inhibition of HDAC1 in human NCI-H1975 cells xenografted with NSG mouse assessed as increase in acetylation of Histone H3 at 50 mg/kg,ip measured after 6 weeks by immunohistochemistry analysis; format: functional, organism-based
[11] = target: T2, Heat shock protein HSP90 (Homo sapiens); assay: Inhibition of HSP90 in human NCI-H1975 cells assessed as downregulation of EGFR expression at 0.05 to 2 uM incubated for 24 hrs by western blot analysis; format: cell-based; conditions: dose 0.05-2 µM, DDE = dose-dependent effect

inhibition [1]: Active | inhibition [5]: Dde | GI50 (NCI-H1975 [6]): 1.7 µM | inhibition [7]: Active | inhibition [10]: Active | inhibition [11]: Dde
Structure (SMILES): CC(C)c1cc(C(=O)N(C)Cc2ccc(C(=O)NO)cc2)c(O)cc1O
Activity [2]: Non-Toxic | Activity (NCI-H1975 [3]): Active | Activity (NCI-H1975 [4]): Active | Activity [8]: Non-Toxic | Activity [9]: Non-Toxic | inhibition (Mus musculus): Active
